Entries after “also recorded” stand apart in the source; their conditions may differ. Read-outs that look alike come from different tables or passages of the source.
How the values were obtained:
[1] = cited from earlier work
[2] = cited from earlier work; remark: listed apart in the source
CYP3A = conditions: Table 3; cited from earlier work
CYP2C19 = CYP2C19 (Homo sapiens, UniProt P33261); conditions: Table 3; cited from earlier work
CYP2C9 = CYP2C9 (Homo sapiens, UniProt P11712); conditions: Table 3; cited from earlier work
CYP2D6 = CYP2D6 (Homo sapiens, UniProt P10635); conditions: Table 3; cited from earlier work
healthy volunteers = assay: ECG QTc assessment after ibutilide infusion in healthy volunteers; format: in vivo, human
Procedure: ECG analysis is one method of assessing arrhythmias, such as prolonged QT intervals. Ibutilide or any other pharmaceutical agent to be studied, can be assessed using an ECG. […] All ECGs were 12 lead and were recorded on a computer disc and on paper at a speed of 50 mm/sec, with the subject in a stationary, resting, supine position.

[3] = Table 2, FDA / medical literature

Sequence of CYP2D6 (P10635 whole entry, the tested form may be a part): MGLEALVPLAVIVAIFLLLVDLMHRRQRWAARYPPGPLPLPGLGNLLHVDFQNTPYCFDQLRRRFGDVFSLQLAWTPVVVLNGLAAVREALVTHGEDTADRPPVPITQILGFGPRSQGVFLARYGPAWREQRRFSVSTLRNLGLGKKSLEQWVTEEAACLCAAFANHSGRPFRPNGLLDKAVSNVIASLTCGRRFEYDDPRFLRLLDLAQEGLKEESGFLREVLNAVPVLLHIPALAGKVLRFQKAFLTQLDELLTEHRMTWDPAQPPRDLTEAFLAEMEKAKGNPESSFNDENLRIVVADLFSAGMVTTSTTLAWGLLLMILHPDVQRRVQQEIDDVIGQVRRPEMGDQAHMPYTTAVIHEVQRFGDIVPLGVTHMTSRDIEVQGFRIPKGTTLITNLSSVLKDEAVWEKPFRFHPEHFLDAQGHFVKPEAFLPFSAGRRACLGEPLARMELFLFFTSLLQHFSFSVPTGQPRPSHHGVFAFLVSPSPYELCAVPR
Sequence of CYP2C19 (P33261 whole entry): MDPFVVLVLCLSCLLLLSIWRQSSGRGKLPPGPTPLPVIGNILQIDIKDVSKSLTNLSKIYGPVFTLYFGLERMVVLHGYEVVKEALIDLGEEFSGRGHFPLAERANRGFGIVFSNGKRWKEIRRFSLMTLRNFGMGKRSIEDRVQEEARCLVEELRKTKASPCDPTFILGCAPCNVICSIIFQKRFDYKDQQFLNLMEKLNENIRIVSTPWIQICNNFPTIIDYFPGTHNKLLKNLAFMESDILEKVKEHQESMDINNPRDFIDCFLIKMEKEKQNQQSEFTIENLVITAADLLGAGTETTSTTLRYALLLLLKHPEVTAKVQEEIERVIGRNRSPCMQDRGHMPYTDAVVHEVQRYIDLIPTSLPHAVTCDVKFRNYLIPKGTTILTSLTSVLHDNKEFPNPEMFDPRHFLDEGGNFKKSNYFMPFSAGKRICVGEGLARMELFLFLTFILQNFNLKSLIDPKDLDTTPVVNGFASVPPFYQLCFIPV
Sequence of CYP2C9 (P11712 whole entry): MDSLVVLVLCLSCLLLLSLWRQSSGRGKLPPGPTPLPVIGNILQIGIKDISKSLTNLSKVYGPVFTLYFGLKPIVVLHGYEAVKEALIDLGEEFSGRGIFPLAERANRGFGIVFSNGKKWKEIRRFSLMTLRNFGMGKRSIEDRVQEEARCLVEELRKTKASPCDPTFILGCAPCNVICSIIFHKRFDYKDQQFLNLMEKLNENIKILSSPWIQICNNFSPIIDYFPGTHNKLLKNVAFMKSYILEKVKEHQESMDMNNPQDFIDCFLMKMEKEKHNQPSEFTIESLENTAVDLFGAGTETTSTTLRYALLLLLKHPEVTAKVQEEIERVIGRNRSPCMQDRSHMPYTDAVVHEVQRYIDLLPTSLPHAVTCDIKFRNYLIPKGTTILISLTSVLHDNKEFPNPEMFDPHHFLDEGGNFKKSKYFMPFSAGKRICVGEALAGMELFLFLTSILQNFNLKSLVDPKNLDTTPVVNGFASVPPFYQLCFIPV

Structure (SMILES)	QT ([1]; Table 2, drug labeling)	TdP [2, 3]	other results
CC(C)N(CCC(C(N)=O)(c1ccccc1)c1ccccn1)C(C)C (centres unmarked) [Disopyramide]	Yes	Yes	
CNCCCC1c2ccccc2C=Cc2ccccc21 [Protriptyline]	Yes		QT ([1]; Table 3): Yes
CNS(=O)(=O)Cc1ccc2[nH]cc(CCN(C)C)c2c1 [Sumatriptan]	Yes		
C=C[C@H]1C[N@@]2CC[C@H]1C[C@@H]2[C@@H](O)c1ccnc2ccc(OC)cc12 [Quinidine]	Yes	Yes	QT ([1]; Table 3): Yes; TdP ([2]; Table 3): Yes; Interactions: cytochrome P-450 isoform 3A, substrate or inhibitor (CYP3A): Substrate
CN1CCC[C@@H]1CCO[C@](C)(c1ccccc1)c1ccc(Cl)cc1 [Clemastine]		Maybe—	TdP ([2]; Table 3): Maybe—
CN1CCN(CC/C=C2/c3ccccc3Sc3ccc(S(=O)(=O)N(C)C)cc32)CC1 [Thiothixene]	Yes	Yes	
CN(C)CCC=C1c2ccccc2COc2ccccc21 [Doxepin]	Yes	Yes	
CCOC(=O)Nc1ccc2c(c1)N(C(=O)CCN1CCOCC1)c1ccccc1S2 [Moricizine]		Yes	
COC(=O)C1=C(C)NC(C)=C(C(=O)OCCN(C)Cc2ccccc2)C1c1cccc([N+](=O)[O-])c1 (centres unmarked) [Nicardipine]	Yes		
CN(C)CCc1c[nH]c2ccc(C[C@H]3COC(=O)N3)cc12 [Zolmitriptan]	Yes		
CNCCC=C1c2ccccc2CCc2ccccc21 [Nortriptyline]	Yes		
CC(=O)N1CCN(c2ccc(OCC3COC(Cn4ccnc4)(c4ccc(Cl)cc4Cl)O3)cc2)CC1 (centres unmarked) [Ketoconazole]			Interactions: cytochrome P-450 isoform 3A, substrate or inhibitor (CYP3A): Inhibitor; Interactions: cytochrome P-450 isoform 2C19, substrate or inhibitor (CYP2C19): Inhibitor
CC[C@H]1OC(=O)[C@H](C)[C@@H](O[C@H]2C[C@@](C)(OC)[C@@H](O)[C@H](C)O2)[C@H](C)[C@@H](O[C@@H]2O[C@H](C)C[C@H](N(C)C)[C@H]2O)[C@](C)(O)C[C@@H](C)C(=O)[C@H](C)[C@@H](O)[C@]1(C)O [Erythromycin]	Yes		QT ([1]; Table 3): Yes
Cc1cccc(C)c1NC(=O)C(C)N (centres unmarked) [Tocainide]	Yes		
CCC(C)n1ncn(-c2ccc(N3CCN(c4ccc(OCC5COC(Cn6cncn6)(c6ccc(Cl)cc6Cl)O5)cc4)CC3)cc2)c1=O (centres unmarked) [Itraconazole]			Interactions: cytochrome P-450 isoform 3A, substrate or inhibitor (CYP3A): Inhibitor
CN1CCCC(n2nc(Cc3ccc(Cl)cc3)c3ccccc3c2=O)CC1 (centres unmarked) [Azelastine]	Yes		
COC(=O)C1=C(C)NC(C)=C(C(=O)OC(C)C)C1c1cccc2nonc12 (centres unmarked) [Isradipine]	Yes		
Clc1ccc2nsnc2c1NC1=NCCN1 [Tizanidine]	Yes		
CNCCC(Oc1ccc(C(F)(F)F)cc1)c1ccccc1 (centres unmarked) [Fluoxetine]	Yes		QT ([1]; Table 3): Yes; Interactions: cytochrome P-450 isoform 3A, substrate or inhibitor (CYP3A): Inhibitor; Interactions: cytochrome P-450 isoform 2C19, substrate or inhibitor (CYP2C19): Inhibitor; Interactions: cytochrome P-450 isoform 2C9, substrate or inhibitor (CYP2C9): Substrate
NC(=O)OCC(COC(N)=O)c1ccccc1 [Felbamate]	Yes?	Yes	QT ([1]; Table 3): Yes; TdP ([2]; Table 3): Yes; Interactions: cytochrome P-450 isoform 2C19, substrate or inhibitor (CYP2C19): Inhibitor
CC(C)COCC(CN(Cc1ccccc1)c1ccccc1)N1CCCC1 (centres unmarked) [Bepridil]	Yes	Yes	
CN1CCN(CCCN2c3ccccc3Sc3ccc(C(F)(F)F)cc32)CC1 [Trifluoperazine]	Yes	Yes	
O=C(NCC1CCCCN1)c1cc(OCC(F)(F)F)ccc1OCC(F)(F)F (centres unmarked) [Flecainide]	Yes		Interactions: cytochrome P-450 isoform 2D6, substrate or inhibitor (CYP2D6): Substrate; QT ([1]; Table 3): Yes
COc1cc(N)c(Cl)cc1C(=O)NC1CCN(CCCOc2ccc(F)cc2)CC1OC (centres unmarked) [Cisapride]	Yes	Yes	QT ([1]; Table 3): Yes; TdP ([2]; Table 3): Yes; Interactions: cytochrome P-450 isoform 3A, substrate or inhibitor (CYP3A): Substrate
Clc1ccc2c(c1)C(N1CCNCC1)=Nc1ccccc1O2 [Amoxapine]	Yes		
O=C1NC(c2ccccc2)(c2ccccc2)C(=O)N1COP(=O)(O)O [Fosphenytoin]	Yes		

Structure (SMILES)	QT ([1]; Table 2, drug labeling)	TdP [2, 3]	other results
Cc1nc2n(c(=O)c1CCN1CCC(c3noc4cc(F)ccc34)CC1)CCCC2 [Risperidone]	Yes	Yes	QT ([1]; Table 3): Yes; TdP ([2]; Table 3): Yes
CN(C)CCCN1c2ccccc2Sc2ccc(Cl)cc21 [Chlorpromazine]	Yes	Yes	
CCCCN(CCCC)CCC(O)c1cc2c(Cl)cc(Cl)cc2c2cc(C(F)(F)F)ccc12 (centres unmarked) [Halofantrine]	Yes		Interactions: cytochrome P-450 isoform 2D6, substrate or inhibitor (CYP2D6): Inhibitor; QT ([1]; Table 3): Yes
CNS(=O)(=O)CCc1ccc2[nH]cc(C3CCN(C)CC3)c2c1 [Naratriptan]	Yes		
CNCCCN1c2ccccc2CCc2ccccc21 [Desipramine]	Yes		Interactions: cytochrome P-450 isoform 2D6, substrate or inhibitor (CYP2D6): Substrate; QT ([1]; Table 3): Yes
COc1ccc(C(CN(C)C)C2(O)CCCCC2)cc1 (centres unmarked) [Venlafaxine]	Yes		Interactions: cytochrome P-450 isoform 2D6, substrate or inhibitor (CYP2D6): Substrate; QT ([1]; Table 3): Yes
CCN(CC)CCNC(=O)c1ccc(N)cc1 [Procainamide]	Yes		
CN(C)CCCN1c2ccccc2CCc2ccccc21 [Imipramine]	Yes		QT ([1]; Table 3): Yes
OC(Cn1cncn1)(Cn1cncn1)c1ccc(F)cc1F [Fluconazole]			Interactions: cytochrome P-450 isoform 3A, substrate or inhibitor (CYP3A): Inbibilor; Interactions: cytochrome P-450 isoform 2C9, substrate or inhibitor (CYP2C9): Inhibitor
N=C(N)c1ccc(OCCCCCOc2ccc(C(=N)N)cc2)cc1 [Pentamidine]		Yes	
CC[C@H]1OC(=O)[C@H](C)[C@@H](O[C@H]2C[C@@](C)(OC)[C@@H](O)[C@H](C)O2)[C@H](C)[C@@H](O[C@@H]2O[C@H](C)C[C@H](N(C)C)[C@H]2O)[C@](C)(OC)C[C@@H](C)C(=O)[C@H](C)[C@@H](O)[C@]1(C)O [Clarithromycin]	Yes		QT ([1]; Table 3): Yes
C[C@@H]1CN(c2c(F)c(N)c3c(=O)c(C(=O)O)cn(C4CC4)c3c2F)C[C@H](C)N1 [Sparfloxacin]	Yes	Yes	
C[C@]12CCC(=O)C=C1CC[C@H]1[C@@H]3CC[C@](O)(C(=O)CO)[C@@]3(C)C[C@H](O)[C@@]12F [Fludrocortisone]	Yes		
O=C(O)P(=O)(O)O [Foscarnet]	Yes		
CC1Cc2ccccc2N1NC(=O)c1ccc(Cl)c(S(N)(=O)=O)c1 (centres unmarked) [Indapamide]	Yes	Maybe—	
OCCN1CCN(CCCN2c3ccccc3Sc3ccc(C(F)(F)F)cc32)CC1 [Fluphenazine]	Yes	Yes	QT ([1]; Table 3): Yes; TdP ([2]; Table 3): Yes
OCCOCCN1CCN(C2=Nc3ccccc3Sc3ccccc32)CC1 [Quetiapine]	Yes		
CCCCCCCN(CC)CCCC(O)c1ccc(NS(C)(=O)=O)cc1 (centres unmarked) [Ibutilide]	Yes	Yes	Duration of QTc prolonging effect (healthy volunteers; 0.003 mg/kg intravenous single dose): almost dissipated by the end of two hours; Mean QTc prolongation over time (AUC, 60 minutes after infusion) (healthy volunteers; men versus women by menstrual phase, p<0.05): significantly smaller in men than in women; also recorded: significantly lower for women during the luteal phase and for men; Maximal change in QTc interval after infusion (healthy volunteers; men, 0.003 mg/kg intravenous single dose): 54 ± 28 ms; Maximal change in QTc interval after infusion (healthy volunteers; women, luteal phase, 0.003 mg/kg intravenous single dose): 53 ± 14 ms; Maximal change in QTc interval after infusion (healthy volunteers; women, menstrual phase, 0.003 mg/kg intravenous single dose): 63 ± 13 ms; Maximal change in QTc interval after infusion (healthy volunteers; women, ovulation phase, 0.003 mg/kg intravenous single dose): 59 ± 17 ms
CNCCCC12CCC(c3ccccc31)c1ccccc12 [Maprotiline]	Yes	Yes	
O=c1[nH]c2ccccc2n1C1CCN(CCCC(c2ccc(F)cc2)c2ccc(F)cc2)CC1 [Pimozide]	Yes	Yes	
OCc1cc(C(O)CNCCCCCCOCCCCc2ccccc2)ccc1O (centres unmarked) [Salmeterol]	Yes		
CCCCc1oc2ccccc2c1C(=O)c1cc(I)c(OCCN(CC)CC)c(I)c1 [Amiodarone]		Yes	TdP ([2]; Table 3): Yes
COc1ccc(CCN2CCC(Nc3nc4ccccc4n3Cc3ccc(F)cc3)CC2)cc1 [Astemizole]	Yes	Yes	QT ([1]; Table 3): Yes; TdP ([2]; Table 3): Yes; Interactions: cytochrome P-450 isoform 3A, substrate or inhibitor (CYP3A): Substrate
CC(C)NCC(O)c1ccc(NS(C)(=O)=O)cc1 (centres unmarked) [Sotalol]	Yes		
OCCN1CCN(CCCN2c3ccccc3Sc3ccc(Cl)cc32)CC1 [Perphenazine]	Yes		
